Earlier results on two molecules are cited in patent US20080221116A1, “ISOXAZOLINE ALPHA 1a/1d ADRENORECEPTOR ANTAGONISTS” (priority 2006, published 2008).

The structures appear in SMILES notation.

One series addresses D2 (Homo sapiens, UniProt P14416). Conditions: as described in the article; cited from earlier work.
The conditions of series [1]: as described in the article; cited from earlier work.
Another series has as its target T1, 5-HT1A site (Homo sapiens, UniProt P08908).
T1 sequence (P08908 1-422): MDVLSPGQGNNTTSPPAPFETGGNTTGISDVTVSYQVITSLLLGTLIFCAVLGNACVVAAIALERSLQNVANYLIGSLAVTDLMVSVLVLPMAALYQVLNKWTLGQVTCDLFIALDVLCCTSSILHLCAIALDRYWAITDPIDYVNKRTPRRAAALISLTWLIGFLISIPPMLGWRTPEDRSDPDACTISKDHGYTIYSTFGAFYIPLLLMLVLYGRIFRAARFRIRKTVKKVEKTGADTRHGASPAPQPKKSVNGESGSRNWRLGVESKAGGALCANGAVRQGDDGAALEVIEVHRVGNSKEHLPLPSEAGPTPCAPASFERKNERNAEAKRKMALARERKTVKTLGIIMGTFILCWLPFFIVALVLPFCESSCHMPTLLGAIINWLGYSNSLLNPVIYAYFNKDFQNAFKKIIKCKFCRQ
The note with it: as described in the article; cited from earlier work.

D2, sequence (P14416 whole entry): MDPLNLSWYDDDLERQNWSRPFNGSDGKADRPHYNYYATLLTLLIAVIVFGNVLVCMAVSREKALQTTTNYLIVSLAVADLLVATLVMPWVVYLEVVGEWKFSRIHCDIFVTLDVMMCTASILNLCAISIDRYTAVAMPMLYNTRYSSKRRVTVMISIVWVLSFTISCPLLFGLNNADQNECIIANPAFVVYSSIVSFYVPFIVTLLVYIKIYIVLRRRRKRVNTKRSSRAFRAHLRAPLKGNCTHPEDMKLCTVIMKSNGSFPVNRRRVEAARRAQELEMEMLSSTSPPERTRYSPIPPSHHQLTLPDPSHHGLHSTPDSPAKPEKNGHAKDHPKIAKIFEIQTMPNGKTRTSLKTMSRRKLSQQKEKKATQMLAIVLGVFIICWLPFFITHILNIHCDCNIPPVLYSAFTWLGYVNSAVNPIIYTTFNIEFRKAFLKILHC

As for `CC(C)Oc1ccccc1N1CCN(CC2CC(CO)=NO2)CC1` (centres unmarked) [compound 49, 4,5-dihydro-5-[[4-[2-(1-methylethoxy)phenyl]-1-piperazinyl]methyl]-3-isoxazolemethanol], the D2 binding result at D2 is “lack”. For the same molecule, the “Conditioned Avoidance Response (CAR) activity” value in series [1] was “strong”. For the same molecule, the “binding affinity for the 5-HT1A site” value at 5-HT1A site was “lack”.

Turning to `CC(C)Oc1ccccc1N1CCN(CC2CC(CN3CCCCC3=O)=NO2)CC1.O.[O-][Cl+3]([O-])([O-])O` (centres unmarked) [compound 50, 1-[[4,5-dihydro-5-[[4-[2-(1-methylethoxy)phenyl]-1-piperazinyl]methyl]-3-isoxazolyl]methyl]-piperidin-2-one perchlorate hydrate], in series [1], the “Conditioned Avoidance Response (CAR) activity” value was “not so active”. For the same molecule, the “binding affinity for the 5-HT1A site” value on 5-HT1A site is on record as “moderately high”.
